Results from ChEMBL document CHEMBL3856280, “Targeting the HSP60/10 chaperonin systems of Trypanosoma brucei as a strategy for treating African sleeping sickness” (Bioorg Med Chem Lett, 2016).

Experiments:
[1] = Inhibition of pig heart native MDH reporter reaction after 20 to 40 mins by fluorescence based assay; set-up: species or system Sus scrofa
[2] = Cytotoxicity against HEK293 cells assessed as reduction in cell viability after 48 hrs by alamar blue assay; assay type: toxicity, cell-based; details: human
[3] = biological target: T1, E. coli GroEL/ES (Escherichia coli, UniProt P0A6F5); assay: Inhibition of Escherichia coli GroEL/GroES expressed in Escherichia coli DH5alpha/BL21 (DE3) assessed as inhibition of denatured MDH refolding preincubated for 10 mins followed by ATP addition measured after 20 to 40 mins by fluorescence based assay
[4] = biological target: T2, HSP60/HSP10 (Homo sapiens, UniProt P10809); assay: Inhibition of human mitochondrial HSP60/HSP10-ATPase activity expressed in Escherichia coli DH5alpha/BL21 (DE3) assessed as inhibition of denatured MDH refolding preincubated for 10 mins followed by ATP addition measured after 40 to 60 mins by malachite green dye based fluorescence assay
[5] = Cytotoxicity against human THLE3 cells assessed as reduction in cell viability after 48 hrs by alamar blue assay; assay type: toxicity, cell-based
[6] = biological target: T1, E. coli GroEL/ES; assay: Inhibition of Escherichia coli GroEL/GroES-ATPase activity expressed in Escherichia coli DH5alpha/BL21 (DE3) assessed as inhibition of denatured MDH refolding preincubated for 10 mins followed by ATP addition measured after 20 to 40 mins by malachite green dye based fluorescence assay
[7] = biological target: T2, HSP60/HSP10; assay: Inhibition of human mitochondrial HSP60/HSP10 expressed in Escherichia coli DH5alpha/BL21 (DE3) assessed as inhibition of denatured MDH refolding preincubated for 10 mins followed by ATP addition measured after 40 to 60 mins by fluorescence based assay
[8] = system: Trypanosoma brucei brucei; assay: Antitrypanosomal activity against Trypanosoma brucei brucei Lister 427 VSG 221 [TetR T7RNAP] transgenic bloodstream forms assessed as reduction in cell viability after 48 hrs by alamar blue assay; assay type: functional; details: Lister 427 VSG 221, 48 h

T1 sequence (P0A6F5 whole entry, looked up): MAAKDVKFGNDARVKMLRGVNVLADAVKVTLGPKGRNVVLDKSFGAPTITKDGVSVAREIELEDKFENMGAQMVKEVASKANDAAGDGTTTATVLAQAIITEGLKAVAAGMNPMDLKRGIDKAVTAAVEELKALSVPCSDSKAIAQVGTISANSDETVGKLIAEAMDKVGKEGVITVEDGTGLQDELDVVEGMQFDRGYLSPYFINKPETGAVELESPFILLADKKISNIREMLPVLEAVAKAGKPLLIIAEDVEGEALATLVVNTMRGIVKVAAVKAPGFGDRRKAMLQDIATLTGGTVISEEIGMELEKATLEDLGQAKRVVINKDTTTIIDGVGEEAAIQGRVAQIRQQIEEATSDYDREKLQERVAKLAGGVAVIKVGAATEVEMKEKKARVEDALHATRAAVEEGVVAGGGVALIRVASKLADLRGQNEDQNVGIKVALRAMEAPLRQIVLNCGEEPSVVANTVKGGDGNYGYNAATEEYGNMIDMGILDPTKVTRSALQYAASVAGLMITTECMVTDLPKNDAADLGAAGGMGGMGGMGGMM
T2 sequence (P10809 whole entry): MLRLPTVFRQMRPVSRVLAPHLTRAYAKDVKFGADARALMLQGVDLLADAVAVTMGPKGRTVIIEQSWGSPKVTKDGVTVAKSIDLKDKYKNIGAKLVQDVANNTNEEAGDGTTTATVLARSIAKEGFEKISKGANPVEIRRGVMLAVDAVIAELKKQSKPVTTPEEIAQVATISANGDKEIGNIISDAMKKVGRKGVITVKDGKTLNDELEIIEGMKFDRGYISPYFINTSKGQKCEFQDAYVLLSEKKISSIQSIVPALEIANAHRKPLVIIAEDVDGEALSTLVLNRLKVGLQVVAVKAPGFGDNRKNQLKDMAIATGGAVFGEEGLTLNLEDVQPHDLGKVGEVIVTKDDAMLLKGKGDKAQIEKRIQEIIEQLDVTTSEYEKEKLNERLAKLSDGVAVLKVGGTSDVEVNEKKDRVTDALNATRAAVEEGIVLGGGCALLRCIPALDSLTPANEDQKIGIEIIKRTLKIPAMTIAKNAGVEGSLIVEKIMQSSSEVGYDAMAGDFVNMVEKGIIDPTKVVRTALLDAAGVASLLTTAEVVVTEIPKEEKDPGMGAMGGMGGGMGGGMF
T2 sequence (P61604 whole entry, further chain): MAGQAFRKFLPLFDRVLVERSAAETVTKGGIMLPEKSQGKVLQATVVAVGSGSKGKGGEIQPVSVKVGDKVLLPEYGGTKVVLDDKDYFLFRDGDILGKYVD

Structure (SMILES)	IC50 [1]	EC50 at 48 h [2]	IC50 [3]	IC50 [4]	EC50 at 48 h [5]	IC50 [6]	IC50 [7]	EC50 [8]
O=C(O)c1cccc(S(=O)(=O)Nc2ccc(-c3nc4cc(NS(=O)(=O)c5cccc(C(=O)O)c5)ccc4o3)cc2)c1	41 µM	> 100 µM	61 µM	> 250 µM	> 100 µM	> 250 µM	81 µM	> 42 µM
O=C(O)c1ccccc1S(=O)(=O)Nc1ccc(-c2nc3cc(NS(=O)(=O)c4ccccc4C(=O)O)ccc3o2)cc1	> 63 µM	> 100 µM	> 100 µM	> 250 µM	> 100 µM	> 250 µM	> 100 µM	> 42 µM
COC(=O)c1ccc(S(=O)(=O)Nc2ccc(-c3nc4cc(NS(=O)(=O)c5ccc(C(=O)OC)cc5)ccc4o3)cc2)cc1	> 63 µM	> 100 µM	26 µM	> 250 µM	> 100 µM	91 µM	87 µM	23 µM
COC(=O)c1ccccc1S(=O)(=O)Nc1ccc(-c2nc3cc(NS(=O)(=O)c4ccccc4C(=O)OC)ccc3o2)cc1	> 63 µM	> 100 µM	36 µM	> 250 µM	> 100 µM	53 µM	> 100 µM	28 µM
O=C(O)c1ccc(S(=O)(=O)Nc2ccc(-c3nc4cc(NS(=O)(=O)c5ccc(C(=O)O)cc5)ccc4o3)cc2)cc1	> 63 µM	> 100 µM	83 µM	> 250 µM	> 100 µM	> 250 µM	> 100 µM	> 42 µM
NCCCC(N)(C(=O)O)C(F)F (configuration not stated) [EFLORNITHINE]	> 63 µM	> 100 µM	> 100 µM	> 250 µM	> 100 µM	> 250 µM	> 100 µM	> 42 µM
CC1CS(=O)(=O)CCN1/N=C/c1ccc([N+](=O)[O-])o1 (configuration not stated) [NIFURTIMOX]	> 63 µM	> 100 µM	> 100 µM	> 250 µM	> 100 µM	> 250 µM	> 100 µM	2.8 µM
N=C(N)c1ccc(OCCCCCOc2ccc(C(=N)N)cc2)cc1 [PENTAMIDINE]	> 63 µM	> 100 µM	> 100 µM	> 250 µM	19 µM	> 250 µM	> 100 µM	< 0.019 µM
Cc1ccc(C(=O)Nc2ccc(S(=O)(=O)O)c3cc(S(=O)(=O)O)cc(S(=O)(=O)O)c23)cc1NC(=O)c1cccc(NC(=O)Nc2cccc(C(=O)Nc3cc(C(=O)Nc4ccc(S(=O)(=O)O)c5cc(S(=O)(=O)O)cc(S(=O)(=O)O)c45)ccc3C)c2)c1 [SURAMIN]	> 63 µM	> 100 µM	7.9 µM	> 250 µM	> 100 µM	> 250 µM	11 µM	0.12 µM
